Patent US9631225B2, “Luciferase-based assays” (Promega Corporation, priority 2002, dated 2017)

How the values were obtained:
[1] = molecular target: T1, firefly luciferase (QuantiLum® luciferase) (Photinus pyralis, UniProt P08659); test: Protection of firefly luciferase reaction from inhibition by isoliquirtigenin (ILT); type: biochemical; conditions: ILT 100 μM
T1 construct: purchased Promega Corporation
Description: (§1) In this experiment, several tolerance enhancing agents were evaluated for their ability to protect luciferases from a known luciferase inhibitor, isoliquirtigenin (ILT) (100 μM, Sigma Chemical). ILT was added to luciferase reactions and the potential tolerance enhancing agents were evaluated for their ability to protect the luciferase from inhibition.
The basic firefly luciferase reactions contained 20 mM HEPES (Sigma Chemical) at pH 8.0, 6.4 mM Magnesium Sulfate (Fisher Scientific), 20 mM Dithiothreitol (City Chemical), 0.63 mM Coenzyme A (Pharmacia Biochemical), 0.4 mM EDTA (Sigma Chemical), 4.0 μM Luciferin (Promega Biosciences), 0.56 mM ATP (Pharmacia Biochemical), and 1.3×10^−6 mg/ml firefly luciferase (QuantiLum® luciferase, Promega Corporation).
(§2) ILT was solubilized at 100 mM in dimethyl sulfoxide (Sigma Chemical). ILT was diluted 1:1000 and the protectors were diluted into the reaction mix before the reaction was initiated by the addition of luciferase.
(§3) Reaction volume for each sample was 100 μl. Luminescence was integrated for 0.5 seconds per sample in a Turner Biosystems Veritas® luminometer immediately after luciferase was added to the reactions and the reactions were mixed. All measurements were done in triplicate.
(§4) The relative protection provided by each compound is calculated as difference between the luminescence generated in the presence and the absence of the protector divided by the total amount of inhibition as represented by the following equation: (L1−L2)/(L3−L4) wherein L1 represents luminescence with inhibitor and tolerance enhancing agent; L2 represents luminescence with inhibitor and no tolerance enhancing agent; L3 represents luminescence with no inhibitor and no tolerance enhancing agent; and L4 represents luminescence with inhibitor and no tolerance enhancing agent.
(§5) The relative protection in the presence of no tolerance enhancing agent, therefore, is 0% and in the absence of an inhibitor is 100%. The reactions used to generate luminescence in the absence of either inhibitor or tolerance enhancing agent still contained the solvent utilized to solubilize the inhibitor with which the reaction was to be compared.

Renilla luciferase = molecular target: T2, Renilla luciferase (Renilla reniformis, UniProt P27652); test: Protection of Renilla luciferase reaction from inhibition by isoliquirtigenin (ILT); type: biochemical; conditions: ILT 100 μM
T2 construct: purchased ChemiCon Chemicals
T2 sequence (P27652 1-311): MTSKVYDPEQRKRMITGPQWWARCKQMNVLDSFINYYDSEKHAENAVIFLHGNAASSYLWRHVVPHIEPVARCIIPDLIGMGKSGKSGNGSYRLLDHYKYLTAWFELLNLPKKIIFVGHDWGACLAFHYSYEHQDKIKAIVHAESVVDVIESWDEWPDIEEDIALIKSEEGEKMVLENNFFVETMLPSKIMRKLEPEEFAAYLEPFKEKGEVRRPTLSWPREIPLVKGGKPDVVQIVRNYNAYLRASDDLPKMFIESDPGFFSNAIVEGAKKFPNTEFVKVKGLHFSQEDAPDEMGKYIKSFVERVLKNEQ
Description: as §1
The basic Renilla luciferase reactions contained 100 mM Potassium Phosphate buffer (Sigma Chemical) at pH 7.4, 500 mM Sodium Chloride (Fisher Scientific), 1.0 mM EDTA (Sigma Chemical), 200 nM Coelenterazine (Promega Biosciences), 0.1% Gelatin (Sigma Chemical) and 0.12 nmol/ml Renilla luciferase (ChemiCon Chemicals).
as §2, §3, §4, §5

[2] = protector reaction concentration 0.02%
[3] = protector reaction concentration 0.10%

T1 sequence (P08659 whole entry): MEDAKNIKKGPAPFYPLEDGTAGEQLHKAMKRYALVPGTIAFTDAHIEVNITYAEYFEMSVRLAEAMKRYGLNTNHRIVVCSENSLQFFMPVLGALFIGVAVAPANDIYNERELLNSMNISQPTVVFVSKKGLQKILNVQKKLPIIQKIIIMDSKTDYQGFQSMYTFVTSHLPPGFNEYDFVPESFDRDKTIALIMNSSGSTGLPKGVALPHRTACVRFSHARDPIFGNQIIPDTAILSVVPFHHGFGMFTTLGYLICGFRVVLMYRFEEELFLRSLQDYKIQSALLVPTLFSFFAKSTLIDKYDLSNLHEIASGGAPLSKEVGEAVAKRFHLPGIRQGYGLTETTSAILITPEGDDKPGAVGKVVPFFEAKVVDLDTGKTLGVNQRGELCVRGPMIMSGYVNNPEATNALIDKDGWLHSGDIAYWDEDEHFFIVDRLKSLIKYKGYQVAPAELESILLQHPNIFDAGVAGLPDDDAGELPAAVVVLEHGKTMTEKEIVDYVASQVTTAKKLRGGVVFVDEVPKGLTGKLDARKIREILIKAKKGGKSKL

| Compound | Relative Protection Against ILT [1, 2] | Relative Protection Against ILT (Renilla luciferase; [3]) | further results |
| --- | --- | --- | --- |
| C[C@H](CCC(=O)NCCC[N+](C)(C)CCCS(=O)(=O)[O-])[C@H]1CC[C@H]2[C@@H]3[C@H](O)C[C@@H]4C[C@H](O)CC[C@]4(C)[C@H]3C[C@H](O)[C@]12C [CHAPS® detergent, 3-([3-Cholamidopropyl]dimethylammonio)-1-propanesulfonate] | 18% | 14% | Relative Protection Against ILT [1, 3]: 57%; Relative Protection Against ILT (Renilla luciferase; protector reaction concentration 0.50%): 97% |
| CCCCCCCCCCCCCCCC[N+](C)(C)C.[Br-] [CTAB, cetyltrimethylammonium] | 100% | 95% | – |
| OC[C@H]1O[C@@](CO)(O[C@H]2O[C@H](CO)[C@@H](O)[C@H](O)[C@H]2O)[C@@H](O)[C@@H]1O [Sucrose] | – | – | Relative Protection Against ILT ([1]; protector reaction concentration 0.5% (w:v)): 32%; Relative Protection Against ILT (Renilla luciferase; protector reaction concentration 0.10% (w:v)): 24% |
| OC[C@H]1O[C@@H]2O[C@H]3[C@H](O)[C@@H](O)[C@@H](O[C@H]4[C@H](O)[C@@H](O)[C@@H](O[C@H]5[C@H](O)[C@@H](O)[C@@H](O[C@H]6[C@H](O)[C@@H](O)[C@@H](O[C@H]7[C@H](O)[C@@H](O)[C@@H](O[C@H]1[C@H](O)[C@H]2O)O[C@@H]7CO)O[C@@H]6CO)O[C@@H]5CO)O[C@@H]4CO)O[C@@H]3CO [α-Cyclodextrin, α-Cyclodextrin (Cyclohexaamylose)] | – | – | Relative Protection Against ILT ([1]; protector reaction concentration 7 mM): 61%; Relative Protection Against ILT (Renilla luciferase; protector reaction concentration 1.4 mM): 60% |
| Deoxycholate | 81% | 72% | – |
| nonylphenol polyethylene glycol ether (C9H19C6H—(OCH2CH2)9OH) [Tergitol NP-9® detergent] | 88% | 97% | – |
